Source: patent publication US11852971B2, “Compound, photosensitive resin composition including the same, photosensitive resin layer, color filter and display device” (SAMSUNG SDI CO., LTD., priority 2019, dated 2023)

Columns and labels:
[1] = Measurement of the shortest wavelength of full width at half maximum (FWHM) with respect to maximum absorption wavelength (absorption spectrum); format: physicochemical; conditions: 0.005 wt % in PGMEA; UV-1800
Text: The shortest wavelength of the full width at half maximum (FWHM) with respect to the maximum absorption wavelengths denotes a wavelength having the smallest value (a) among the energy widths (Δλ) of the maximum absorption wavelength (b) in the absorption spectrum of a particular phthalocyanine compound. (Refer to the FIGURE)
Evaluation 1: Measurement of the Shortest Wavelength of Full Width at Half Maximum (FWHM) with respect to Maximum Absorption Wavelength
The compounds according to Synthesis Example 1 to Synthesis Example 21 and Comparative Synthesis Example 1 to Comparative Synthesis Example 6 were prepared at a concentration of 0.005 wt % using a diluting solvent (PGMEA). Absorption spectra were obtained for each of the phthalocyanine compounds according to Synthesis Example 1 to […] and Comparative Synthesis Example 1 to Comparative Synthesis Example 6, and the results are shown in Table 1 (UV-1800, SHTMADZU).

[2] = Solubility measurement in dilution solvent (PGMEA); format: physicochemical; conditions: PGMEA added to 0.5 g compound, stirred 100 rpm, one hour, 25° C.
Method: Evaluation 2: Solubility Measurement Solubility of the compounds according to Synthesis Examples 11 to 21 and Comparative Synthesis Examples 1 to 6 were measured by adding a dilution solvent (PGMEA) to 0.5 g of each compound and respectively stirring the mixtures (MIXROTAR VMR-5, Iuchi Seiei Dou Co.) at 100 rpm for one hour at 25° C., and the results are shown in Table 2. Solubility Evaluation Criteria Greater than or equal to 10 wt % of a compound (a solute) based on a total amount of a diluting solvent was dissolved: ∘ Less than 10 wt % of a compound (a solute) based on a total amount of a diluting solvent was dissolved: X

| Structure (SMILES) | The shortest wavelength (nm) of full width at half maximum (FWHM) with respect to maximum absorption wavelength [1] | Solubility [2] |
| --- | --- | --- |
| CC(C)CCOc1c(Cl)c(Cl)c2c(c1Cl)/C1=N/c3c4c(Cl)c(OCCC(C)C)c(Cl)c(Cl)c4c4[n]3[Zn][n]3/c(c5ccccc5/c3=N/C2=N1)=N\C1=NC(=N\4)/c2ccccc21 [Synthesis Example 17] | 611 nm | ○ |
| Cc1cccc(C)c1Oc1c(Cl)c(Cl)c2c(c1Cl)/C1=N/c3c4c(Cl)c(Oc5c(C)cccc5C)c(Cl)c(Cl)c4c4[n]3[Zn][n]3/c(c5ccccc5/c3=N/C2=N1)=N\C1=NC(=N\4)/c2c(Cl)c(Cl)c(Cl)c(Cl)c21 [Synthesis Example 6] | 618 nm | ○ |
| COc1ccc(Oc2c(Cl)c(Cl)c3c4[n]5c(c3c2Cl)/N=C2N=C(/N=c3/c6c(Cl)c(Cl)c(Cl)c(Cl)c6/c([n]3[Zn]5)=N/C3=NC(=N\4)/c4c(Cl)c(Cl)c(Cl)c(Cl)c43)c3c(Cl)c(Cl)c(Cl)c(Cl)c3\2)c(OC)c1 [Comparative Synthesis Example 4, reference compound] | 626 nm | X (Less than 10 wt % of a compound (a solute) based on a total amount of a diluting solvent was dissolved) |
| CC(C)(C)COc1c(Cl)c(Cl)c2c(c1Cl)/C1=N/c3c4c(Cl)c(Cl)c(Cl)c(Cl)c4c4[n]3[Zn][n]3/c(c5ccccc5/c3=N/C2=N1)=N\C1=NC(=N\4)/c2c(Cl)c(Cl)c(Cl)c(Cl)c21 [Synthesis Example 13] | 618 nm | ○ |
| CC(C)COc1c(Cl)c(Cl)c2c(c1Cl)/C1=N/c3c4c(Cl)c(OCC(C)C)c(Cl)c(Cl)c4c4[n]3[Zn][n]3/c(c5ccccc5/c3=N/C2=N1)=N\C1=NC(=N\4)/c2ccccc21 [Synthesis Example 20] | 611 nm | ○ |
| CC(C)(C)c1ccccc1Oc1c(Cl)c(Cl)c2c(c1Cl)/C1=N/c3c4c(Cl)c(Oc5ccccc5C(C)(C)C)c(Cl)c(Cl)c4c4[n]3[Zn][n]3/c(c5cc(Cl)c(Cl)cc5/c3=N/C2=N1)=N\C1=NC(=N\4)/c2c(Cl)c(Cl)c(Cl)c(Cl)c21 [Comparative Synthesis Example 5, reference compound] | 625 nm | X (Less than 10 wt % of a compound (a solute) based on a total amount of a diluting solvent was dissolved) |
| Cc1ccc(Oc2c(Cl)c(Cl)c3c(c2Cl)/C2=N/c4c5c(Cl)c(Oc6ccc(C)cc6C(C)(C)C)c(Cl)c(Cl)c5c5[n]4[Zn][n]4/c(c6ccccc6/c4=N/C3=N2)=N\C2=NC(=N\5)/c3ccccc32)c(C(C)(C)C)c1 [Synthesis Example 11] | 611 nm | ○ |
| Cc1ccccc1Oc1c(Cl)c(Cl)c2c(c1Cl)/C1=N/c3c4c(Cl)c(Oc5ccccc5C)c(Cl)c(Cl)c4c4[n]3[Zn][n]3/c(c5ccccc5/c3=N/C2=N1)=N\C1=NC(=N\4)/c2c(Cl)c(Cl)c(Cl)c(Cl)c21 [Synthesis Example 5] | 618 nm | ○ |
| CC(C)(C)c1ccc(Oc2c(Cl)c(Cl)c3c(c2Cl)C2=NC/3=N\c3c4c(Cl)c(Cl)c(Oc5ccc(C(C)(C)C)cc5C(C)(C)C)c(Cl)c4c4[n]3[Zn][n]3/c(c5c(Cl)c(Cl)c(Oc6ccc(C(C)(C)C)cc6C(C)(C)C)c(Cl)c5/c3=N/C3=NC(=N\4)/c4c(Cl)c(Oc5ccc(C(C)(C)C)cc5C(C)(C)C)c(Cl)c(Cl)c43)=N\2)c(C(C)(C)C)c1 [Comparative Synthesis Example 2, reference compound] | 624 nm | X (Less than 10 wt % of a compound (a solute) based on a total amount of a diluting solvent was dissolved) |
| CC(C)(C)c1ccccc1Oc1c(Cl)c(Cl)c2c(c1Cl)/C1=N/c3c4c(Cl)c(Cl)c(Cl)c(Cl)c4c4[n]3[Zn][n]3/c(c5ccccc5/c3=N/C2=N1)=N\C1=NC(=N\4)/c2c(Cl)c(Cl)c(Cl)c(Cl)c21 [Synthesis Example 4] | 617 nm | ○ |
| CC(C)COc1c(Cl)c(Cl)c2c(c1Cl)/C1=N/c3c4c(Cl)c(OCC(C)C)c(Cl)c(Cl)c4c4[n]3[Zn][n]3/c(c5ccccc5/c3=N/C2=N1)=N\C1=NC(=N\4)/c2c(Cl)c(Cl)c(Cl)c(Cl)c21 [Synthesis Example 18] | 617 nm | ○ |
| Cc1ccc(Oc2c(Cl)c(Cl)c3c(c2Cl)/C2=N/c4c5c(Cl)c(Oc6ccc(C)cc6C(C)(C)C)c(Cl)c(Cl)c5c5[n]4[Zn][n]4/c(c6ccccc6/c4=N/C3=N2)=N\C2=NC(=N\5)/c3c(Cl)c(Cl)c(Cl)c(Cl)c32)c(C(C)(C)C)c1 [Synthesis Example 10] | 616 nm | ○ |
| CC(C)(C)c1ccc(Oc2c(Cl)c(Cl)c3c(c2Cl)/C2=N/c4c5c(Cl)c(Oc6ccc(C(C)(C)C)cc6C(C)(C)C)c(Cl)c(Cl)c5c5[n]4[Zn][n]4/c(c6ccccc6/c4=N/C3=N2)=N\C2=NC(=N\5)/c3c(Cl)c(Cl)c(Cl)c(Cl)c32)c(C(C)(C)C)c1 [Synthesis Example 8] | 616 nm | ○ |
| CC(C)(C)c1ccccc1Oc1c(Cl)c(Cl)c2c(c1Cl)/C1=N/c3c4c(Cl)c(Oc5ccccc5C(C)(C)C)c(Cl)c(Cl)c4c4[n]3[Zn][n]3/c(c5cc(Cl)ccc5/c3=N/C2=N1)=N\C1=NC(=N\4)/c2c(Cl)c(Cl)c(Cl)c(Cl)c21 [Comparative Synthesis Example 6, reference compound] | 623 nm | X (Less than 10 wt % of a compound (a solute) based on a total amount of a diluting solvent was dissolved) |
| CC(C)(C)COc1c(Cl)c(Cl)c2c(c1Cl)/C1=N/c3c4c(Cl)c(OCC(C)(C)C)c(Cl)c(Cl)c4c4[n]3[Zn][n]3/c(c5ccccc5/c3=N/C2=N1)=N\C1=NC(=N\4)/c2c(Cl)c(Cl)c(Cl)c(Cl)c21 [Synthesis Example 12] | 617 nm | ○ |
| CC(C)(C)COc1c(Cl)c(Cl)c2c(c1Cl)/C1=N/c3c4c(Cl)c(OCC(C)(C)C)c(Cl)c(Cl)c4c4[n]3[Zn][n]3/c(c5ccccc5/c3=N/C2=N1)=N\C1=NC(=N\4)/c2ccccc21 [Synthesis Example 14] | 611 nm | ○ |
| CC(C)c1ccccc1Oc1c(Cl)c(Cl)c2c(c1Cl)/C1=N/c3c4c(Cl)c(Oc5ccccc5C(C)C)c(Cl)c(Cl)c4c4[n]3[Zn][n]3/c(c5ccccc5/c3=N/C2=N1)=N\C1=NC(=N\4)/c2c(Cl)c(Cl)c(Cl)c(Cl)c21 [Synthesis Example 1] | 616 nm | ○ |
| CCC(C)c1ccccc1Oc1c(Cl)c(Cl)c2c(c1Cl)C1=NC/2=N\c2c3c(Cl)c(Cl)c(Oc4ccccc4C(C)CC)c(Cl)c3c3[n]2[Zn][n]2/c(c4c(Cl)c(Cl)c(Oc5ccccc5C(C)CC)c(Cl)c4/c2=N/C2=NC(=N\3)/c3c(Cl)c(Oc4ccccc4C(C)CC)c(Cl)c(Cl)c32)=N\1 (centres unmarked) [Comparative Synthesis Example 1, reference compound] | 628 nm | X (Less than 10 wt % of a compound (a solute) based on a total amount of a diluting solvent was dissolved) |
| CC(C)(C)c1ccc(Oc2c(Cl)c(Cl)c3c(c2Cl)/C2=N/c4c5ccccc5c5[n]4[Zn][n]4/c(c6ccccc6/c4=N/C3=N2)=N\C2=NC(=N\5)/c3ccccc32)c(C(C)(C)C)c1 [Synthesis Example 21] | 608 nm | X (Less than 10 wt % of a compound (a solute) based on a total amount of a diluting solvent was dissolved) |
| Cc1cccc(C)c1Oc1c(Cl)c(Cl)c2c(c1Cl)/C1=N/c3c4c(Cl)c(Cl)c(Cl)c(Cl)c4c4[n]3[Zn][n]3/c(c5ccccc5/c3=N/C2=N1)=N\C1=NC(=N\4)/c2c(Cl)c(Cl)c(Cl)c(Cl)c21 [Synthesis Example 7] | 618 nm | ○ |
| CC(C)(C)c1ccc(Oc2c(Cl)c(Cl)c3c(c2Cl)/C2=N/c4c5c(Cl)c(Cl)c(Cl)c(Cl)c5c5[n]4[Zn][n]4/c(c6ccccc6/c4=N/C3=N2)=N\C2=NC(=N\5)/c3c(Cl)c(Cl)c(Cl)c(Cl)c32)c(C(C)(C)C)c1 [Synthesis Example 9] | 618 nm | ○ |
| CC(C)COc1c(Cl)c(Cl)c2c(c1Cl)/C1=N/c3c4c(Cl)c(Cl)c(Cl)c(Cl)c4c4[n]3[Zn][n]3/c(c5ccccc5/c3=N/C2=N1)=N\C1=NC(=N\4)/c2c(Cl)c(Cl)c(Cl)c(Cl)c21 [Synthesis Example 19] | 618 nm | ○ |
